The values below come from paper PMC11432795, “Mutagenesis of the Peptide Inhibitor of ASIC3 Channel Introduces Binding to Thumb Domain of ASIC1a but Reduces Analgesic Activity” (Marine Drugs, 2024).

The test system of test [1] is ASIC3 channels. The following applies: ref [18],[19],[20]; cited from earlier work. From the text: The 29-amino acid peptide Ugr9a-1, isolated from the venom of the northern sea anemone Urticina grebelnyi, represents a structural class of toxins termed “boundless β-hairpin”.
For test [2] the following is noted: cited from earlier work. The source says: Selective ligands targeting specific ASIC isoforms are invaluable for structural and functional investigations. Peptide ligands sourced from various animal venoms have emerged as such tools. […] Bot ... || The 29-amino acid peptide Ugr9a-1, isolated from the venom of the northern sea anemone Urticina grebelnyi, represents a structural class of toxins termed “boundless β-hairpin”. […] While the significant involvement of ASIC3 channels in acid-induced, chronic neuropathic and inflammatory pain has been extensively reported, the role of ASIC1a remains less clear.

Test [3] is described as follows: All pain tests conducted (overall). In kind it is in vivo, ICR mice. The following applies: i.m. Here is the method:
Adult male ICR mice (Animal Breeding Facility Branch of Shemyakin–Ovchinnikov Institute of Bioorganic Chemistry, Russian Academy of Sciences, Pushchino, Russia), weighing 20–25 g, were utilized. Animals were housed under controlled conditions, with a room temperature of 23 ± 2 °C, a 12 h light–dark cycle, and ad libitum access to food and water. Test substances were dissolved in saline. Peptides (Ugr9-1 and A23K at doses of 0.002, 0.02, and 0.2 mg/kg) and saline (for the control group) were administered intramuscularly 60 min prior to testing.
The abdominal constriction test of visceral pain (acetic acid-induced writhing pain model) and hyperalgesia induced by complete Freund’s adjuvant (CFA-induced inflammatory pain model) were performed as previously described.
For the von Frey filaments test, mice were positioned in a plastic chamber with access to the inflamed hind paw surface and an electronic von Frey filament (BIO-EVF, Bioseb, Vitrolles, France) was applied with gradually increasing pressure until withdrawal. Data, expressed as the strength of the applied mechanical stimulus from three applications, were averaged, with intervals between exposures of at least 1 min.
Statistical analysis was conducted using analysis of variance (ANOVA) with post hoc Tukey’s test, and data are presented as mean ± standard deviation (S.D.).

Test [4] concerns rat ASIC1b channel. Nature of the test: Two-electrode voltage clamp, rat ASIC1b in X. laevis oocytes. The test is classed as cell-based. The conditions noted are these: 30 s preapplication, activated at pH 5.5. Here is the method:
A small portion of the ovary was isolated from frogs under anesthesia induced by a 0.17% solution of procaine methanesulphonate (MS222) (Sigma), followed by treatment with collagenase (1 mg/mL) at room temperature for 2 h. Oocytes at stages IV and V, devoid of follicular membranes, were transferred to ND-96 medium (containing 96 mM NaCl, 5 mM HEPES, 2 mM KCl, 1.8 mM CaCl2, 1 mM MgCl2, pH 7.4). mRNA synthesis was performed from pcDNA3.1 vectors (Invitrogen, Carlsbad, CA, USA) containing the rat ASIC3 gene, as well as pCI vectors containing genes for rat ASIC1a, its mutant analogues, and ASIC1b. mRNA (2.5–10 ng) was then injected into the oocytes. For the ASIC1a/3 heteromeric channels, the mRNA encoding the ASIC1a and ASIC3 subunits were injected in a 1:5 ratio, respectively. Subsequently, the oocytes were incubated for 2–3 days at a temperature of 17–19 °C in ND96 medium supplemented with gentamicin and streptomycin (20 µg/mL each).
Whole-cell electrophysiological recordings of ASIC channels were conducted using a two-electrode voltage-clamp setup. Microelectrodes were filled with 3 M KCl. Recordings from oocytes were carried out at a holding potential of −50 mV, with data filtered at 10 Hz and sampled at a rate of 100 Hz using an L780M ADC (LCard, Moscow, Russia). […]

Positions of bridges follow the written chain, without caps; N, C: chain ends. Residues, ends and D or L forms follow the SMILES beside them.

For `CC[C@H](C)[C@H](N)C(=O)N[C@@H](CO)C(=O)N[C@H](C(=O)N[C@@H](CC(=O)O)C(=O)N1CCC[C@H]1C(=O)N1CCC[C@H]1C(=O)N[C@H]1CSSC[C@@H]2NC(=O)[C@H](CC(N)=O)NC(=O)CNC(=O)[C@H](CO)NC(=O)CNC(=O)[C@H](CC(=O)O)NC(=O)[C@H](CCCNC(=N)N)NC(=O)[C@H](Cc3c[nH]cn3)NC(=O)[C@H](Cc3ccc(O)cc3)NC(=O)[C@H](CSSC[C@@H](C(=O)NCC(=O)N[C@@H](C)C(=O)N[C@H](C(=O)O)C(C)C)NC(=O)CNC(=O)[C@H](Cc3ccc(O)cc3)NC(=O)[C@H](C)NC(=O)[C@H](CC(=O)O)NC(=O)[C@H](Cc3ccc(O)cc3)NC(=O)[C@H](C(C)C)NC2=O)NC(=O)[C@H](Cc2ccccc2)NC(=O)[C@H](CCCNC(=N)N)NC1=O)[C@@H](C)CC` [Ugr9-1] (H-ISIDPPCRFCYHRDGSGNCVYDAYGCGAV-OH; disulfide 7-19, 10-26), the “modulation of ASIC3 channels” value in test [1] was “selectively modulates ASIC3 channels”. In test [2] (mouse models, ref [18],[19],[20]), the “effect on acid-induced and inflammatory pain” value was “promising results in mitigating acid-induced and inflammatory pain”. Also, the “effect on acid-induced and CFA-induced inflammatory pain” value in test [2] (range of doses, ref [18],[20]) was “attenuates acid-induced and CFA-induced inflammatory pain in mice across a range of doses”.

With `CC[C@H](C)[C@H](N)C(=O)N[C@@H](CO)C(=O)N[C@H](C(=O)N[C@@H](CC(=O)O)C(=O)N1CCC[C@H]1C(=O)N1CCC[C@H]1C(=O)N[C@H]1CSSC[C@@H]2NC(=O)[C@H](CC(N)=O)NC(=O)CNC(=O)[C@H](CO)NC(=O)CNC(=O)[C@H](CC(=O)O)NC(=O)[C@H](CCCNC(=N)N)NC(=O)[C@H](Cc3c[nH]cn3)NC(=O)[C@H](Cc3ccc(O)cc3)NC(=O)[C@H](CSSC[C@@H](C(=O)NCC(=O)N[C@@H](C)C(=O)N[C@H](C(=O)O)C(C)C)NC(=O)CNC(=O)[C@H](Cc3ccc(O)cc3)NC(=O)[C@H](CCCCN)NC(=O)[C@H](CC(=O)O)NC(=O)[C@H](Cc3ccc(O)cc3)NC(=O)[C@H](C(C)C)NC2=O)NC(=O)[C@H](Cc2ccccc2)NC(=O)[C@H](CCCNC(=N)N)NC1=O)[C@@H](C)CC` [A23K] (H-ISIDPPCRFCYHRDGSGNCVYDKYGCGAV-OH; disulfide 7-19, 10-26), in test [3], the “analgesic effect compared to the wild-type peptide” value is listed as “significantly less pronounced analgesic effect compared to the wild-type peptide”. For the same compound, the “effect on rat ASIC1b channel at 50 µM” value in test [4] is listed as “Lack of effect”.
